Results taken from publication PMC7126891 (Bioorganic & Medicinal Chemistry, 2013).
Read-outs that look alike come from different tables or passages of the source.

Experiments:
SARS-CoV 3CL^pro [1] = target: T1, SARS-CoV 3CL^pro (Severe acute respiratory syndrome coronavirus, UniProt P0C6X7); format: biochemical
SARS-CoV 3CL^pro [2] = target: T1, SARS-CoV 3CL^pro
SARS-CoV 3CL^pro [3] = target: T1, SARS-CoV 3CL^pro; experiment: biochemical; format: binding

| Compound | Cell-free trans-cleavage inhibition type (SARS-CoV 3CL^pro [1]) | SI (CC50/IC50) (SARS-CoV 3CL^pro [2]) | also measured |
| --- | --- | --- | --- |
| Oc1cc(O)cc(Oc2c(O)cc(O)c3c2Oc2c(O)cc(O)cc2O3)c1 [Compound 3, eckol] | Competitive (8.2 ± 0.9) | <1 | fold higher activity than triphloretol A (2) (SARS-CoV 3CL^pro [1]): 20 fold |
| Oc1cc(O)c2oc3cc(O)c4oc5cc(O)cc(O)c5oc4c3oc2c1 [Compound 4, dioxinodehydroeckol] | – | >1.4 | – |
| Oc1cc(O)cc(Oc2c(Oc3c(O)cc(O)cc3O)cc(O)c3c2Oc2c(O)cc(O)cc2O3)c1 [Compound 5, 2-phloroeckol] | Competitive (24.0 ± 1.5) | >1.8 | fold increase of inhibitory activity versus 7-phloroeckol (6) (SARS-CoV 3CL^pro [1]): ~3 fold |
| Oc1cc(O)cc(Oc2c(O)cc(O)c3c2Oc2c(O)cc(Oc4c(O)cc(O)cc4O)cc2O3)c1 [Compound 6, 7-phloroeckol] | Competitive (19.3 ± 1.4) | >1.8 | – |
| Oc1cc(O)c(Oc2cc(O)cc(O)c2Oc2cc(O)cc(O)c2-c2c(O)cc(O)cc2O)c(O)c1 [Compound 7, fucodiphloroethol G] | Competitive (63.5 ± 7.1) | – | SI (CC50/IC50) (SARS-CoV 3CL^pro [2]; African green monkey): >1.1 |
| Oc1cc(O)cc(Oc2c(O)cc(O)c3c2Oc2c(O)cc(Oc4c(O)cc(Oc5c(O)cc(O)c6c5Oc5c(O)cc(O)cc5O6)cc4O)cc2O3)c1 [Compound 8, dieckol] | Competitive (2.4 ± 0.2) | >2.9 | kon (SARS-CoV 3CL^pro [3]; read-out: association rate constant kon): 7.35e+07 M⁻¹ s⁻¹; koff (SARS-CoV 3CL^pro [3]; read-out: dissociation rate constant koff): 0.000843 s⁻¹ |
| Oc1cc(O)cc(Oc2c(O)cc(O)c3c2Oc2c(O)cc4oc5c(Oc6cc(O)cc(O)c6)c(O)cc(O)c5c4c2O3)c1 [Compound 9, phlorofucofuroeckol A] | Competitive (10.6 ± 1.0) | >1.1 | – |
